Laboratory results as given in the supplement of paper PMC10627819.

Key:
B. subtilis 168 [1] = experiment: fitness (endpoint OD595 vs no drug) (fraction); higher = more growth
Outline: (§1)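 Bacterial growth was followed in 384-well plates seeded at OD595 0.01, with 30 µl per well, or 55 µl for S. pneumoniae, in TSB, LB Lennox or CY at 37 °C. OD595 was read every 30 min for 14 h, and each reading had the first reading subtracted as background. Fitness is the background-corrected optical density at entry into stationary phase divided by the robust mean of the no-drug control wells. This ratio is capped at 1.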

S. aureus DSM 20231 [2] = experiment: as above
Outline: as §1

S. pneumoniae D39V [3] = experiment: as above
Outline: as §1

B. subtilis 168 [4] = experiment: Bliss interaction score (quartile over a dose matrix) (fitness difference); higher = more antagonism (negative = synergy)
Outline: (§2)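 Fitness was OD595 at entry into stationary phase divided by the plate's robust no-drug mean and capped at 1; single-drug fitness was inferred from combination data. The Bliss score is observed minus expected (product) fitness, summarised by quartiles over technical, biological and donor/recipient replicates.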

S. aureus DSM 20231 [5] = experiment: as above
Outline: as §2

S. aureus Newman = experiment: as above
Outline: as §2

S. pneumoniae D39V [6] = experiment: as above
Outline: as §2
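For Bliss interaction score (quartile over a dose matrix) in this document: first quartile when negative (synergy) and third quartile when positive (antagonism).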

CCC[C@@H]1C[C@@H](C(=O)N[C@@H]([C@H]2O[C@H](SC)[C@H](O)[C@@H](O)[C@H]2O)[C@@H](C)O)N(C)C1 [Lincomycin] + CCN(CC)CCOC(=O)c1ccc(N)cc1 [Procaine]
fitness
Conditions	partner 85.5 µg/mL	partner 171 µg/mL	partner 342 µg/mL
B. subtilis 168 [1], first compound 0.1 µg/mL	0.917	0.932	0.891
B. subtilis 168 [1], first compound 0.2 µg/mL	0.899	0.922	0.862
B. subtilis 168 [1], first compound 0.4 µg/mL	0.875	0.875	0.853
S. aureus DSM 20231 [2], first compound 0.1 µg/mL	0.844	0.926	0.863
S. aureus DSM 20231 [2], first compound 0.2 µg/mL	0.749	0.837	0.821
S. aureus DSM 20231 [2], first compound 0.4 µg/mL	0.391	0.39	0.363
S. pneumoniae D39V [3], first compound 0.215 µg/mL	0.812	0.783	0.784
S. pneumoniae D39V [3], first compound 0.43 µg/mL	0.717	0.695	0.697
S. pneumoniae D39V [3], first compound 0.86 µg/mL	–	0.39	0.495

fitness, S. pneumoniae D39V [3], one replicate
Conditions	first compound 0.2 µg/mL	first compound 0.4 µg/mL	first compound 0.8 µg/mL
partner 85.5 µg/mL	0.748	0.673	0.0927
partner 171 µg/mL	0.809	0.693	0.148
partner 342 µg/mL	0.746	0.665	0.126

Conditions	Bliss interaction score
B. subtilis 168 [4]	0.0306
S. aureus DSM 20231 [5]	0.0558
S. aureus Newman	0.0563
S. pneumoniae D39V [6]	-0.0294

CCC[C@@H]1C[C@@H](C(=O)N[C@@H]([C@H]2O[C@H](SC)[C@H](O)[C@@H](O)[C@H]2O)[C@@H](C)O)N(C)C1 [Lincomycin] + CN1C2=CC=CC=C2N=C3C1=CC=CC3=O [Pyocyanin]
Conditions	fitness
B. subtilis 168 [1], first compound 0.1 µg/mL, partner 1.25 µg/mL	0.899
B. subtilis 168 [1], first compound 0.1 µg/mL, partner 2.5 µg/mL	0.823
B. subtilis 168 [1], first compound 0.1 µg/mL, partner 5 µg/mL	0.694
B. subtilis 168 [1], first compound 0.2 µg/mL, partner 1.25 µg/mL	0.862
B. subtilis 168 [1], first compound 0.2 µg/mL, partner 2.5 µg/mL	0.8
B. subtilis 168 [1], first compound 0.2 µg/mL, partner 5 µg/mL	0.668
B. subtilis 168 [1], first compound 0.4 µg/mL, partner 1.25 µg/mL	0.827
B. subtilis 168 [1], first compound 0.4 µg/mL, partner 2.5 µg/mL	0.792
B. subtilis 168 [1], first compound 0.4 µg/mL, partner 5 µg/mL	0.66
S. aureus DSM 20231 [2], first compound 0.1 µg/mL, partner 1.25 µg/mL	0.794
S. aureus DSM 20231 [2], first compound 0.1 µg/mL, partner 2.5 µg/mL	0.883
S. aureus DSM 20231 [2], first compound 0.1 µg/mL, partner 5 µg/mL	0.555
S. aureus DSM 20231 [2], first compound 0.2 µg/mL, partner 1.25 µg/mL	0.661
S. aureus DSM 20231 [2], first compound 0.2 µg/mL, partner 2.5 µg/mL	0.613
S. aureus DSM 20231 [2], first compound 0.2 µg/mL, partner 5 µg/mL	0.329
S. aureus DSM 20231 [2], first compound 0.4 µg/mL, partner 2.5 µg/mL	0.195
S. aureus DSM 20231 [2], first compound 0.4 µg/mL, partner 5 µg/mL	0.0887
S. pneumoniae D39V [3], first compound 0.215 µg/mL, partner 0.325 µg/mL	0.877
S. pneumoniae D39V [3], first compound 0.215 µg/mL, partner 0.65 µg/mL	0.855
S. pneumoniae D39V [3], first compound 0.215 µg/mL, partner 1.3 µg/mL	0.741
S. pneumoniae D39V [3], first compound 0.43 µg/mL, partner 0.325 µg/mL	0.575
S. pneumoniae D39V [3], first compound 0.43 µg/mL, partner 0.65 µg/mL	0.794
S. pneumoniae D39V [3], first compound 0.43 µg/mL, partner 1.3 µg/mL	0.665
S. pneumoniae D39V [3], first compound 0.86 µg/mL, partner 0.325 µg/mL	0.535
S. pneumoniae D39V [3], first compound 0.86 µg/mL, partner 0.65 µg/mL	0.489
S. pneumoniae D39V [3], first compound 0.86 µg/mL, partner 1.3 µg/mL	0.329

fitness, S. pneumoniae D39V [3], one replicate
Conditions	first compound 0.2 µg/mL	first compound 0.4 µg/mL	first compound 0.8 µg/mL
partner 0.325 µg/mL	0.818	0.7	0.661
partner 0.65 µg/mL	0.855	0.747	0.69

Conditions	Bliss interaction score
B. subtilis 168 [4]	0.0751
S. aureus DSM 20231 [5]	-0.1
S. aureus Newman	-0.229
S. pneumoniae D39V [6]	0.113

CCC[C@@H]1C[C@@H](C(=O)N[C@@H]([C@H]2O[C@H](SC)[C@H](O)[C@@H](O)[C@H]2O)[C@@H](C)O)N(C)C1 [Lincomycin] + CN(N=O)C(=O)N[C@@H](C=O)[C@@H](O)[C@H](O)[C@H](O)CO [Streptozotocin]
fitness
Conditions	first compound 0.1 µg/mL	first compound 0.2 µg/mL	first compound 0.215 µg/mL	first compound 0.4 µg/mL	first compound 0.43 µg/mL	first compound 0.86 µg/mL
B. subtilis 168 [1], partner 0.15 µg/mL	0.957	0.99	–	0.994	–	–
B. subtilis 168 [1], partner 0.3 µg/mL	0.966	0.93	–	0.997	–	–
B. subtilis 168 [1], partner 0.6 µg/mL	0.956	0.953	–	0.99	–	–
S. aureus DSM 20231 [2], partner 0.15 µg/mL	0.804	0.635	–	0.282	–	–
S. aureus DSM 20231 [2], partner 0.3 µg/mL	0.796	0.611	–	0.267	–	–
S. aureus DSM 20231 [2], partner 0.6 µg/mL	0.708	0.565	–	0.177	–	–
S. pneumoniae D39V [3], partner 1.2 µg/mL	–	–	0.752	–	0.664	0.148
S. pneumoniae D39V [3], partner 2.4 µg/mL	–	–	0.754	–	0.661	0.261
S. pneumoniae D39V [3], partner 4.8 µg/mL	–	–	0.793	–	0.705	0.237

fitness, S. pneumoniae D39V [3], one replicate
Conditions	first compound 0.2 µg/mL	first compound 0.4 µg/mL	first compound 0.8 µg/mL
partner 1.2 µg/mL	0.767	0.683	0.181
partner 2.4 µg/mL	0.734	0.683	0.273
partner 4.8 µg/mL	0.639	0.553	0

Conditions	Bliss interaction score
B. subtilis 168 [4]	-0.0171
S. aureus DSM 20231 [5]	0.0558
S. aureus Newman	0.125
S. pneumoniae D39V [6]	-0.138
